How the values were obtained:
Type in all cases: cell-based
[1] = test system: Streptococcus pyogenes ATCC21547; assay: Growth inhibition zone on agarose plate (Test Example 2); settings: 2 μl of 50 μM solution per well, BHI plate, no sodium chloride, 2.0 mm = no zone
Procedure: (§1) The antibacterial activity of the moricin obtained in Example 1 against various bacteria was examined based on the method described in Nature, 292:246 (1981).
When Streptococcus pyogenes was used as a test bacterium, 0.8% agarose-containing BHI plate medium was used.
(§2) 50 μM moricin solution was prepared. 2 μl of this solution was added to each well of a plate medium into which a test bacterium had been inoculated. The plate was incubated at 30° C. overnight and then diameters of the growth inhibition zones formed were measured. As a control, cecropin B1 was used. Incidentally, the diameter of the well was 2.0 mm.

[2] = test system: Pseudomonas aeruginosa IAM1514; assay: as above; settings: 2 μl of 50 μM solution per well, NB plate, no sodium chloride, 2.0 mm = no zone
Procedure: as §1
(§3) NB plate medium containing 0.8% agarose (optionally, sodium chloride was added thereto to give a concentration of 150 mM) was used.
as §2

[3] = test system: Staphylococcus xylosus IAM1312; assay: as above; settings: 2 μl of 50 μM solution per well, NB plate, no sodium chloride, 2.0 mm = no zone
Procedure: as §1, §3, §2

[4] = test system: Staphylococcus aureus IF03083; assay: as above; settings: 2 μl of 50 μM solution per well, NB plate, no sodium chloride, 2.0 mm = no zone
Procedure: as §1, §3, §2

[5] = test system: Staphylococcus epidermidis IF012993; assay: as above; settings: 2 μl of 50 μM solution per well, NB plate, no sodium chloride, 2.0 mm = no zone
Procedure: as §1, §3, §2

Bacillus cereus IF03457 [6] = assay: as above; settings: 2 μl of 50 μM solution per well, NB plate, no sodium chloride, 2.0 mm = no zone
Procedure: as §1, §3, §2

Escherichia coli JM109 [7] = assay: as above; settings: 2 μl of 50 μM solution per well, NB plate, no sodium chloride, well 2.0 mm, 2.0 mm = no zone
Procedure: as §1, §3, §2

[8] = test system: Bacillus megaterium IAM1030; assay: as above; settings: 2 μl of 50 μM solution per well, NB plate, no sodium chloride, 2.0 mm = no zone
Procedure: as §1, §3, §2

[9] = test system: Pseudomonas fluorescens IAM1179; assay: as above; settings: 2 μl of 50 μM solution per well, NB plate, no sodium chloride, 2.0 mm = no zone
Procedure: as §1, §3, §2

[10] = test system: Bacillus subtilis IAM1107; assay: as above; settings: 2 μl of 50 μM solution per well, NB plate, no sodium chloride, 2.0 mm = no zone
Procedure: as §1, §3, §2

[11] = test system: Staphylococcus aureus ATCC6538P; assay: as above; settings: 2 μl of 50 μM solution per well, 2.0 mm = no zone
Procedure: as §1, §3, §2

[12] = test system: Staphylococcus aureus subsp. aureus ATCC 6538P; assay: Minimum inhibitory concentration (M.I.C.), liquid medium; settings: BHI medium, 30° C. for 20 hours
Procedure: (§4) In order to examine the antibacterial activity of the moricin obtained in Example 1 against various bacteria, the mimimum inhibitory concentration (M.I.C.) of moricin was measured based on the method described in Eur. J. Biochem., 187:381-386 (1990).
(§5) When E. coli and Staphylococcus aureus subsp. aureus were used as test bacteria, brain heart infusion medium (BHI medium, Difco) was used. When Bacillus cereus was used as a test bacterium, nutrient broth medium (NB medium, Difco) was used.
(§6) To a test medium suspending a test bacterium at a concentration of 4×10^4 cells/ml, an equal volume of the same medium containing moricin at varied concentrations was added and incubated at 30° C. for 20 hours. After the incubation, an equal volume of 6% formalin was added thereto to give a two-fold dilution. Then, the degree of cell proliferation was examined by measuring the absorbance at 650 nm. As a control, cecropin B1 [Comp. Biochem. Physiol. 95B:551 (1990)] was used which is a known antibacterial peptide derived from silkworm.

Bacillus cereus IF03457 [13] = assay: as above; settings: NB medium, 30° C. for 20 hours
Procedure: as §4, §5, §6

Escherichia coli JM109 [14] = assay: as above; settings: BHI medium, 30° C. for 20 hours
Procedure: as §4, §5, §6

“Cecropin B1: known antibacterial peptide derived from silkworm, used as a control (RWKIFKKIEKMGRNIRDGIVKAGPAIEVLGSAKAI; UniProt P04142 27-61, looked up)” was tested, and the “Diameter of the Inhibition Zone” value [1] was 2.0 mm, the “Diameter of the Inhibition Zone” value [2] was 7.9 mm and the “Diameter of the Inhibition Zone” value [3] was 2.0 mm. The “Diameter of the Inhibition Zone” value [4] was 2.0 mm, the “Diameter of the Inhibition Zone” value [5] was 9.0 mm and the “Diameter of the Inhibition Zone” value (Bacillus cereus IF03457 [6]) was 2.0 mm. The “Diameter of the Inhibition Zone” value (Escherichia coli JM109 [7]) was 10.1 mm, the “Diameter of the Inhibition Zone” value [8] was 10.9 mm and the “Diameter of the Inhibition Zone” value [9] was 8.9 mm. The “Diameter of the Inhibition Zone” value [10] was 7.8 mm, the “Diameter of the Inhibition Zone” value ([11]; NB plate with 150 mM sodium chloride) was 2.3 mm and the “Diameter of the Inhibition Zone” value ([11]; NB plate, no sodium chloride) was 6.9 mm. It also gave a M.I.C. [12] of over 16 µg/mL, a M.I.C. (Bacillus cereus IF03457 [13]) of over 16 µg/mL and a M.I.C. (Escherichia coli JM109 [14]) of under 1 µg/mL.

From patent US5646014A, “Peptide, antibacterial agent, peptide gene, recombinant DNA and method for preparing the peptide” (Agriculture, Forestry and Fisheries Technical Information …, priority 1994, dated 1997)
